Assay results: PubChem BioAssay (NCI)
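Results reflect a 48-hour exposure of cells in 96-well plates to compound at five concentrations. Abbreviation: GI50, concentration required for 50% inhibition of growth. Definition used: TGI = concentration required for complete inhibition of growth.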

Key:
Assay in all cases: inhibition of tumour cell growth, NCI panel, 48 h; in the data active means GI50 below about 0.43 µM; inactive means the rest
OVCAR-5 ovarian = system: OVCAR-5 ovarian
HL-60(TB) leukemia = system: HL-60(TB) leukemia
U251 CNS = system: U251 CNS
UO-31 renal = system: UO-31 renal
MDA-MB-435 = system: MDA-MB-435
UACC-257 melanoma = system: UACC-257 melanoma
OVCAR-4 ovarian = system: OVCAR-4 ovarian
NCI-H522 lung = system: NCI-H522 lung
HCT-15 colon = system: HCT-15 colon
T-47D breast = system: T-47D breast
SN12C renal = system: SN12C renal
OVCAR-3 ovarian = system: OVCAR-3 ovarian
TK-10 renal = system: TK-10 renal
MCF7 breast = system: MCF7 breast
SF-539 CNS = system: SF-539 CNS
SF-268 CNS = system: SF-268 CNS
786-0 renal = system: 786-0 renal
M14 melanoma = system: M14 melanoma
DU-145 prostate = system: DU-145 prostate
SW-620 colon = system: SW-620 colon
NCI-H23 lung = system: NCI-H23 lung
CAKI-1 renal = system: CAKI-1 renal
SK-MEL-2 melanoma = system: SK-MEL-2 melanoma
SK-OV-3 ovarian = system: SK-OV-3 ovarian
IGROV1 ovarian = system: IGROV1 ovarian
SNB-75 CNS = system: SNB-75 CNS
ACHN renal = system: ACHN renal
RPMI-8226 leukemia = system: RPMI-8226 leukemia
A498 renal = system: A498 renal
SK-MEL-28 melanoma = system: SK-MEL-28 melanoma
UACC-62 melanoma = system: UACC-62 melanoma
HS 578T breast = system: HS 578T breast
HT29 colon = system: HT29 colon
MALME-3M melanoma = system: MALME-3M melanoma
LOX IMVI melanoma = system: LOX IMVI melanoma
PC-3 prostate = system: PC-3 prostate
K-562 leukemia = system: K-562 leukemia
MDA-MB-231 breast = system: MDA-MB-231 breast
HOP-92 NSCLC = system: HOP-92 NSCLC
SK-MEL-5 melanoma = system: SK-MEL-5 melanoma
SR leukemia = system: SR leukemia
A549 NSCLC = system: A549 NSCLC
OVCAR-8 ovarian = system: OVCAR-8 ovarian
NCI/ADR-RES ovarian = system: NCI/ADR-RES ovarian
SF-295 CNS = system: SF-295 CNS
SNB-19 CNS = system: SNB-19 CNS
MDA-N = system: MDA-N
NCI-H226 lung = system: NCI-H226 lung
CCRF-CEM leukemia = system: CCRF-CEM leukemia
EKVX NSCLC = system: EKVX NSCLC
COLO 205 colon = system: COLO 205 colon
MOLT-4 leukemia = system: MOLT-4 leukemia
HOP-62 NSCLC = system: HOP-62 NSCLC
HCT-116 colon = system: HCT-116 colon
KM12 colon = system: KM12 colon
NCI-H460 lung = system: NCI-H460 lung
HCC-2998 colon = system: HCC-2998 colon
RXF 393 renal = system: RXF 393 renal
BT-549 breast = system: BT-549 breast

COc1ccc(OC)c(N(CN2C(=O)CCC2C(=O)O)C(C)=O)c1 (centres undefined)
> 100 µM: TGI (OVCAR-5 ovarian) | TGI (HL-60(TB) leukemia) | TGI (U251 CNS) | TGI (UO-31 renal) | TGI (MDA-MB-435) | TGI (UACC-257 melanoma) | TGI (OVCAR-4 ovarian) | TGI (NCI-H522 lung) | TGI (HCT-15 colon) | TGI (T-47D breast) | TGI (SN12C renal) | TGI (OVCAR-3 ovarian) | TGI (TK-10 renal) | TGI (MCF7 breast) | TGI (SF-539 CNS) | TGI (SF-268 CNS) | TGI (786-0 renal) | TGI (M14 melanoma) | TGI (DU-145 prostate) | TGI (SW-620 colon) | TGI (NCI-H23 lung) | TGI (CAKI-1 renal) | TGI (SK-MEL-2 melanoma) | TGI (SK-OV-3 ovarian) | TGI (IGROV1 ovarian) | TGI (SNB-75 CNS) | TGI (ACHN renal) | TGI (RPMI-8226 leukemia) | TGI (A498 renal) | TGI (SK-MEL-28 melanoma) | TGI (UACC-62 melanoma) | TGI (HS 578T breast) | TGI (HT29 colon) | TGI (MALME-3M melanoma) | TGI (LOX IMVI melanoma) | TGI (PC-3 prostate) | TGI (K-562 leukemia) | TGI (MDA-MB-231 breast) | TGI (HOP-92 NSCLC) | TGI (SK-MEL-5 melanoma) | TGI (SR leukemia) | TGI (A549 NSCLC) | TGI (OVCAR-8 ovarian) | TGI (NCI/ADR-RES ovarian) | TGI (SF-295 CNS) | TGI (SNB-19 CNS) | TGI (MDA-N) | TGI (NCI-H226 lung) | TGI (CCRF-CEM leukemia) | TGI (EKVX NSCLC) | TGI (COLO 205 colon) | TGI (MOLT-4 leukemia) | TGI (HOP-62 NSCLC) | TGI (HCT-116 colon) | TGI (KM12 colon)

Cc1cc(C)nc(SC2=C(Nc3cc(Cl)ccc3O)C(=O)N(Cc3ccccc3)C2=O)n1
87.5 µM: TGI (HS 578T breast)
78.4 µM: TGI (HCT-15 colon)
> 160 µM: TGI (OVCAR-5 ovarian) | TGI (U251 CNS) | TGI (UO-31 renal) | TGI (MDA-MB-435) | TGI (OVCAR-4 ovarian) | TGI (NCI-H522 lung) | TGI (NCI-H460 lung) | TGI (TK-10 renal) | TGI (SF-539 CNS) | TGI (SF-268 CNS) | TGI (M14 melanoma) | TGI (SW-620 colon) | TGI (NCI-H23 lung) | TGI (CAKI-1 renal) | TGI (SK-MEL-2 melanoma) | TGI (SK-OV-3 ovarian) | TGI (ACHN renal) | TGI (A498 renal) | TGI (HCC-2998 colon) | TGI (K-562 leukemia) | TGI (SK-MEL-5 melanoma) | TGI (A549 NSCLC) | TGI (NCI/ADR-RES ovarian) | TGI (SF-295 CNS) | TGI (SNB-19 CNS) | TGI (EKVX NSCLC) | TGI (BT-549 breast) | TGI (HCT-116 colon)
124 µM: TGI (CCRF-CEM leukemia)
47.7 µM: TGI (NCI-H226 lung)
89.4 µM: TGI (LOX IMVI melanoma)
63.2 µM: TGI (T-47D breast)
110 µM: TGI (OVCAR-8 ovarian)
86.4 µM: TGI (PC-3 prostate)
17.2 µM: TGI (RXF 393 renal)
108 µM: TGI (DU-145 prostate)
48 µM: TGI (MDA-MB-231 breast)
85.2 µM: TGI (786-0 renal)
90.7 µM: TGI (COLO 205 colon)
102 µM: TGI (UACC-257 melanoma)
104 µM: TGI (SNB-75 CNS)
25.7 µM: TGI (RPMI-8226 leukemia)
inactive: GI50 (OVCAR-5 ovarian) > 160 µM | GI50 (HL-60(TB) leukemia) 33.3 µM | GI50 (U251 CNS) 38.6 µM | GI50 (UO-31 renal) 80.7 µM | GI50 (MDA-MB-435) 62.2 µM | GI50 (UACC-257 melanoma) 32.5 µM | GI50 (OVCAR-4 ovarian) 34 µM | GI50 (NCI-H522 lung) 17.4 µM | GI50 (HCT-15 colon) 23.5 µM | GI50 (T-47D breast) 15 µM | GI50 (NCI-H460 lung) 56.6 µM | GI50 (OVCAR-3 ovarian) 18.8 µM | GI50 (TK-10 renal) 53.9 µM | GI50 (MCF7 breast) 20.5 µM | GI50 (SF-539 CNS) > 160 µM | GI50 (SF-268 CNS) 61.2 µM | GI50 (786-0 renal) 14.7 µM | GI50 (M14 melanoma) 48.4 µM | GI50 (DU-145 prostate) 39 µM | GI50 (SW-620 colon) 53 µM | GI50 (NCI-H23 lung) 113 µM | GI50 (CAKI-1 renal) > 160 µM | GI50 (SK-MEL-2 melanoma) 49.5 µM | GI50 (SK-OV-3 ovarian) > 160 µM | GI50 (IGROV1 ovarian) 25.3 µM | GI50 (SNB-75 CNS) 21.8 µM | GI50 (ACHN renal) 43.5 µM | GI50 (RPMI-8226 leukemia) 3.57 µM | GI50 (A498 renal) > 160 µM | GI50 (SK-MEL-28 melanoma) 42.3 µM | GI50 (UACC-62 melanoma) 16.2 µM | GI50 (HCC-2998 colon) > 160 µM | GI50 (HS 578T breast) 28.1 µM | GI50 (HT29 colon) 33.8 µM | GI50 (MALME-3M melanoma) 39.4 µM | GI50 (LOX IMVI melanoma) 27.2 µM | GI50 (PC-3 prostate) 19.9 µM | GI50 (K-562 leukemia) 5.53 µM | GI50 (MDA-MB-231 breast) 16.8 µM | GI50 (HOP-92 NSCLC) 21.9 µM | GI50 (SK-MEL-5 melanoma) 38.9 µM | GI50 (SR leukemia) 18.6 µM | GI50 (A549 NSCLC) 30.7 µM | GI50 (OVCAR-8 ovarian) 27 µM | GI50 (RXF 393 renal) 4.03 µM | GI50 (NCI/ADR-RES ovarian) > 160 µM | GI50 (SF-295 CNS) 36.8 µM | GI50 (SNB-19 CNS) > 160 µM | GI50 (NCI-H226 lung) 1.78 µM | GI50 (CCRF-CEM leukemia) 7.38 µM | GI50 (EKVX NSCLC) 57.7 µM | GI50 (COLO 205 colon) 36.4 µM | GI50 (MOLT-4 leukemia) 6.14 µM | GI50 (BT-549 breast) 63 µM | GI50 (HOP-62 NSCLC) 27.6 µM | GI50 (HCT-116 colon) 31.4 µM | GI50 (KM12 colon) 27.4 µM
70 µM: TGI (HL-60(TB) leukemia)
70.6 µM: TGI (SR leukemia)
41.8 µM: TGI (UACC-62 melanoma)
101 µM: TGI (HOP-62 NSCLC)
109 µM: TGI (MCF7 breast)
73.8 µM: TGI (KM12 colon)
99.7 µM: TGI (MALME-3M melanoma)
148 µM: TGI (SK-MEL-28 melanoma)
65 µM: TGI (HT29 colon)
53.2 µM: TGI (OVCAR-3 ovarian)
31.4 µM: TGI (MOLT-4 leukemia)
88.6 µM: TGI (IGROV1 ovarian)
68.5 µM: TGI (HOP-92 NSCLC)
